Entries after “also recorded” stand apart in the source; their conditions may differ.
Assays:
[1] = target: T1, FPR2/ALX-transfected HL60 (Homo sapiens, UniProt P25090); assay: Ca2+ flux in FPR2/ALX-transfected HL60 cells; format: cell-based
T1 sequence (P25090 1-351): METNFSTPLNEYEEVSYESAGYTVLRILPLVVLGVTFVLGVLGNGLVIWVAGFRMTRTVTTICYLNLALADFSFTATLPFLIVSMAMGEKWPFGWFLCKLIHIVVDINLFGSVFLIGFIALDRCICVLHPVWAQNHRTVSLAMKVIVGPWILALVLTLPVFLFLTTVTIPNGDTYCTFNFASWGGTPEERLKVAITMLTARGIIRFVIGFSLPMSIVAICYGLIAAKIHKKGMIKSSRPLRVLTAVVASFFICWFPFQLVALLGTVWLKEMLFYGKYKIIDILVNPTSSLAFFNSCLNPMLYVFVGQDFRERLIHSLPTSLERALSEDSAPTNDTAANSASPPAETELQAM

human neutrophils [2] = target: T2, human neutrophils (Homo sapiens, UniProt P25090); assay: Ca2+ flux in human neutrophils; format: cell-based; conditions: 37°C; for pEC50, calcium ion flux: human neutrophils, Fluo-3-AM, flow cytometry, means +/- SD of at least three independent experiments, nonlinear regression, 11-18 points
T2 sequence (P25090 1-351): T1 sequence (P25090 1-351)

human neutrophils [3] = target: T2, human neutrophils; assay: Neutrophil chemotaxis; format: cell-based; conditions: 3-µm trans-well filter, fluorescence-labeled neutrophils
mouse neutrophils = assay: Ca2+ flux in mouse neutrophils; format: cell-based; conditions: calcium flux
[4] = system: peritoneal granulocyte infiltration, S. aureus USA300; assay: Mouse peritonitis model, S. aureus USA300; format: in vivo; conditions: WRW4 prior to infection, two-hours infection period
human FPR2/ALX = conditions: ref Karlsson et al., 2006; Onnheim et al., 2008; cited from earlier work
[5] = system: mouse FPR paralog (Fpr-rs2); conditions: ref Karlsson et al., 2006; Onnheim et al., 2008; cited from earlier work
FPR1-transfected HL60 = assay: Ca2+ flux in FPR1-transfected HL60 cells; format: cell-based, human; conditions: 62.5-500 nM formylated PSMs, 2 µM non-formylated PSMs; fMLF 20 nM
[6] = system: mice, cows, pigs, dogs, and cats; conditions: ref Styrt, 1989; cited from earlier work

With `CSCC[C@H](N)C(=O)N[C@@H](CCC(=O)O)C(=O)N[C@@H](Cc1ccccc1)C(=O)N[C@H](C(=O)N[C@@H](C)C(=O)N[C@@H](CCCCN)C(=O)N[C@@H](CC(C)C)C(=O)N[C@@H](Cc1ccccc1)C(=O)N[C@@H](CCCCN)C(=O)N[C@@H](Cc1ccccc1)C(=O)N[C@@H](Cc1ccccc1)C(=O)N[C@@H](CCCCN)C(=O)N[C@@H](CC(=O)O)C(=O)N[C@@H](CC(C)C)C(=O)N[C@@H](CC(C)C)C(=O)NCC(=O)N[C@@H](CCCCN)C(=O)N[C@@H](Cc1ccccc1)C(=O)N[C@@H](CC(C)C)C(=O)NCC(=O)N[C@@H](CC(N)=O)C(=O)N[C@@H](CC(N)=O)C(=O)O)C(C)C` [PSMα3, non-formylated] as the compound, how does the EC50 [1] read?
The EC50 was 257 nM.

What about the “pEC50, calcium ion flux” value (human neutrophils [2]) of the same compound?
Its value is 5.19 ± 0.24.

What does the source list for `CC[C@H](C)[C@H](NC(=O)[C@H](Cc1c[nH]c2ccccc12)NC(=O)[C@H](CCCCN)NC(=O)[C@@H](NC(=O)[C@H](CC(C)C)NC(=O)[C@H](CC(=O)O)NC(=O)[C@H](CO)NC(=O)[C@@H](NC(=O)[C@@H](NC(=O)[C@H](CO)NC(=O)[C@@H](NC(=O)[C@@H](NC(=O)[C@H](CC(=O)O)NC(=O)[C@H](CCC(N)=O)NC(=O)[C@H](C)NC(=O)[C@@H](N)CCSC)[C@@H](C)CC)[C@@H](C)CC)[C@@H](C)O)[C@@H](C)CC)C(C)C)C(=O)N[C@H](C(=O)N[C@@H](CC(=O)O)C(=O)N[C@H](C(=O)N[C@H](C(=O)N[C@@H](CC(N)=O)C(=O)N[C@@H](CCCCN)C(=O)N[C@@H](Cc1ccccc1)C(=O)N[C@H](C(=O)N[C@@H](CCCCN)C(=O)N[C@@H](CCCCN)C(=O)O)[C@@H](C)O)C(C)C)[C@@H](C)O)[C@@H](C)CC` [δ-Toxin, non-formylated]?
EC50 [1]: 479 nM; pEC50, calcium ion flux (human neutrophils [2]): 5.20 ± 0.14

With LESIFRSLLFRVM-NH2 [MMK1] as the compound, how does the “calcium flux activation of FPR2/ALX-transfected HL60” value ([1]; 62.5 nM (formylated PSMα3), 125 nM (formylated PSMα2), 250 nM (formylated δ-toxin, PSM-mec), 500 nM (formylated PSMsα1, α4, β1, β2), 2 µM (non-formylated PSMs), MMK1 10 nM) read?
The value was “responded”.

With “MDFTGVITSIIDLIKTCIQAFG [PSM-mec, formylated]” as the compound, how does the “chemotaxis of human neutrophils” value (human neutrophils [3]) read?
The value was “induce chemotaxis”.

For WRWWWW-NH2 [WRW4], which “effect of WRW4 on mouse neutrophil stimulation by fMLF” value (mouse neutrophils; fMLF 500 nM) is on record?
The value was “not affected”.

What about the “effect of WRW4 on mouse neutrophil stimulation by MMK1 and PSMs” value (mouse neutrophils; formylated PSMα3 250 nM, PSMα2 12.5 nM, δ-toxin 50 nM, MMK1 500 nM) of the same compound?
Its value is “potent antagonistic effect; also recorded: blocks”.

And the “effect on numbers of live bacteria” value [4]?
Its value is “no impact”.

And the “inhibition of human FPR2/ALX” value (human FPR2/ALX)?
The value was “an inhibitor of human FPR2/ALX”.

And the “inhibition of mouse FPR paralog Fpr-rs2” value [5]?
The value was “inhibitor”.

Which “calcium flux activation of FPR1-transfected HL60” value (FPR1-transfected HL60) does the source give for fMLF here?
Its value is “responded”.

What about the “response to fMLF” value [6] of the same compound?
The value was “hardly respond”.

Which “effect of pertussis toxin on PSM-induced calcium flux” value (human neutrophils [2]; PTX 1 µg/ml, three hours, 5% CO2) does the source give for pertussis toxin here?
The value was “sensitive; also recorded: blocked”.
